Drawing on US9718817B2, “Aryl and heteroaryl ether compounds as ROR gamma modulators” (Glenmark Pharmaceuticals S.A., priority 2014, dated 2017), this text covers inhibition and IC50 for 21 compounds.

This assay has as its target T1, GST-tagged ROR gamma ligand binding domain (LBD) (Homo sapiens, UniProt P51449).
T1 construct: purchased Invitrogen
T1 sequence (P51449 269-508 limits assumed): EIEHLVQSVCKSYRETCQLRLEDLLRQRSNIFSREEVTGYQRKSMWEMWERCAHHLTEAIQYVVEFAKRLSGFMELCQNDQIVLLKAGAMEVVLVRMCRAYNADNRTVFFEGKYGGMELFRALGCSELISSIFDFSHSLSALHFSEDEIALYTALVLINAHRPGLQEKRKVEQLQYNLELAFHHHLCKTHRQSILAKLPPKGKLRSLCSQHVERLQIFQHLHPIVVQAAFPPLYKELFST
Description: TR-FRET assay for ROR gamma (LanthaScreen co-activator peptide recruitment). Format: biochemical. The following applies: for inhibition at 1 µM: compound 1 μM; for inhibition at 1 µM / inhibition at 10 µM: TR-FRET ratio 520/495, percent of control; for inhibition at 10 µM: compound 10 μM; for IC50: class symbols, from dose response curve. The text has this: The compounds described herein were screened for ROR gamma modulator activity using the TR-FRET assay by Lantha Screen as described in JBC 2011, 286, 26: 22707-10; and Drug Metabolism and Disposition 2009, 37, 10: 2069-78.
The assay is based on the principle that binding of the agonist to the ROR gamma causes a conformational change around helix 12 in the ligand binding domain, resulting in higher affinity for the co-activator peptide. ROR gamma being constitutively active, the Fluorescein-D22 co-activator peptide used in the assay is recruited in the absence of a ligand. Binding of the co-activator peptide, causes an increase in the TR-FRET signal while binding of an antagonist decreases the recruitment of the co-activator peptide, causing a decrease in the TR-FRET signal compared to control with no compound. The assay was performed using a two-step procedure, pre-incubation step with the compound followed by the detection step on addition of the anti-GST tagged terbium (Tb) and fluorescein tagged fluorophores as the acceptor.
Test compounds or reference compounds such as T0901317 (Calbiochem) were dissolved in dimethylsulfoxide (DMSO) to prepare 10.0 mM stock solutions and diluted to the desired concentration. The final concentration of DMSO in the reaction was 4% (v/v). The assay mixture was prepared by mixing 10 nM of the GST-tagged ROR gamma ligand binding domain (LBD) in the assay buffer containing 25 mM HEPES (pH 7.4), 100 mM NaCl, 5 mM DTT and 0.01% BSA with or without the desired concentration of the compound. The reaction was incubated at 22° C. for 1 hour. The pre-incubation step was terminated by addition of the detection mixture containing 300 nM Fluorescein-D22 co-activator peptide and 10 nM lantha screen Tb-anti GST antibody into the reaction mixture. After shaking for 5 minutes the reaction was further incubated for 1 hour at room temperature and read at 4° C. on an Infinite F500 reader as per the kit instructions (Invitrogen). The inhibition of test compound was calculated based on the TR-FRET ratio of 520/495. The activity was calculated as a percent of control reaction. IC50 values were calculated from dose response curve by nonlinear regression analysis using GraphPad Prism software.
Percentage inhibition at concentrations of 1.0 μM and 10.0 μM are given in the table along with IC50 (nM) details for selected examples.

On to `CCS(=O)(=O)c1ccc(CC(=O)Nc2ccc(OC(C)(C)c3ccc(F)c(F)c3)cc2)cc1` [Example 1, N-(4-{[2-(3,4-Difluorophenyl)propan-2-yl]oxy}phenyl)-2-[4(ethylsulfonyl)phenyl]acetamide], for which the inhibition (in general, the change of the read-out against control, counted positive when it falls) at 1 µM is 47.7% and the inhibition at 10 µM is 74.3%.

Take `CCS(=O)(=O)c1ccc(CC(=O)Nc2ccc(OC(C)(C)c3ccc(F)cc3F)cc2)cc1` [Example 2, N-(4-{[2-(2,4-Difluorophenyl)propan-2-yl]oxy}phenyl)-2-[4-(ethylsulfonyl)phenyl]acetamide]: the inhibition at 1 µM was 66.9% and the inhibition at 10 µM came to 78%.

As for `CCS(=O)(=O)c1ccc(CC(=O)Nc2ccc(OC(C)(C)c3ccc(Cl)cc3Cl)cc2)cc1` [Example 3, N-(4-{[2-(2,4-Dichlorophenyl)propan-2-yl]oxy}phenyl)-2-[4-(ethylsulfonyl)phenyl]acetamide], the IC50 (as a rule, the concentration that inhibits the measured activity by half) is less than 50 nM; the inhibition at 1 µM came out at 81.3%; the inhibition at 10 µM came to 83.4%.

Regarding `CCS(=O)(=O)c1ccc(CC(=O)Nc2ccc(OC(C)(C)c3ccc(Cl)c(Cl)c3)cc2)cc1` [Example 4, N-(4-{[2-(3,4-Dichlorophenyl)propan-2-yl]oxy}phenyl)-2-[4-(ethylsulfonyl)phenyl]acetamide], the concentration for half-maximal inhibition (IC50) is less than 50 nM, the inhibition at 1 µM was 80.5% and the inhibition at 10 µM turned out to be 86.4%.

Consider `CCS(=O)(=O)c1ccc(CC(=O)Nc2ccc(OC(C)(C)c3cc(Cl)cc(Cl)c3)cc2)cc1` [Example 5, N-(4-{[2-(3,5-Dichlorophenyl)propan-2-yl]oxy}phenyl)-2-[4-(ethylsulfonyl)phenyl]acetamide], for which the inhibition at 1 µM came out at 58.2% and the inhibition at 10 µM was 66.9%.

With `CCS(=O)(=O)c1ccc(CC(=O)Nc2ccc(OC(C)(C)c3ccc(Cl)cc3F)cc2)cc1` [Example 6, N-(4-{[2-(4-Chloro-2-fluorophenyl)propan-2-yl]oxy}phenyl)-2-[4-(ethylsulfonyl)phenyl]acetamide], the inhibition at 1 µM was found to be 77.5% and the inhibition at 10 µM is 83.1%.

As to `CCS(=O)(=O)c1ccc(CC(=O)Nc2ccc(OC(C)(C)c3ccc(Cl)c(F)c3)cc2)cc1` [Example 7, N-{4-[1-(4-Chloro-3-fluoro-phenyl)-1-methyl-ethoxy]-phenyl}-2-(4-ethanesulfonyl-phenyl)-acetamide], the inhibition at 1 µM stood at 74.4% and the inhibition at 10 µM is 85.1%.

Regarding `CCS(=O)(=O)c1ccc(CC(=O)Nc2ccc(OC(C)(C)c3ccc(F)cc3Cl)cc2)cc1` [Example 8, N-(4-{[2-(2-Chloro-4-fluorophenyl)propan-2-yl]oxy}phenyl)-2-[4-(ethylsulfonyl)phenyl]acetamide], the IC50 is less than 50 nM, the inhibition at 1 µM worked out at 85% and the inhibition at 10 µM came to 87.8%.

Regarding `CCS(=O)(=O)c1ccc(CC(=O)Nc2ccc(OC(C)(C)c3ccc(C(F)(F)F)cc3)cc2)cc1` [Example 9, 2-[4-(Ethylsulfonyl)phenyl]-N-[4-({2-[4-(trifluoromethyl)phenyl]propan-2-yl}oxy)phenyl]acetamide], the IC50 was less than 50 nM, the inhibition at 1 µM was 86.5% and the inhibition at 10 µM was determined as 89%.

With `CCS(=O)(=O)c1ccc(CC(=O)Nc2ccc(OC(C)(C)c3ccc(C(F)(F)F)c(F)c3)cc2)cc1` [Example 10, 2-(4-Ethanesulfonyl-phenyl)-N-{4-[1-(3-fluoro-4-trifluoromethyl-phenyl)-1-methyl-ethoxy]-phenyl}-acetamide], the inhibition at 1 µM was found to be 70.9% and the inhibition at 10 µM came out at 81.5%.

In the case of `CCS(=O)(=O)c1ccc(CC(=O)Nc2ccc(OC(C)(C)c3ncc(Cl)cc3Cl)cc2)cc1` [Example 11, N-{4-[1-(3,5-Dichloro-pyridin-2-yl)-1-methyl-ethoxy]-phenyl}-2-(4-ethanesulfonyl-phenyl)-acetamide], the IC50 was less than 50 nM, the inhibition at 1 µM was 84.3% and the inhibition at 10 µM turned out to be 89%.

On to `CCC(CC)(Oc1ccc(NC(=O)Cc2ccc(S(=O)(=O)CC)cc2)cc1)c1ccc(Cl)c(F)c1` [Example 12, N-{4-[1-(4-Chloro-3-fluoro-phenyl)-1-ethyl-propoxy]-phenyl}-2-(4-ethanesulfonyl-phenyl)-acetamide], for which the half-inhibitory concentration (IC50) lay in the range of 50 to 100 nM, the inhibition at 1 µM was found to be 73.9% and the inhibition at 10 µM was 85.4%.

As for `CCC(CC)(Oc1ccc(NC(=O)Cc2ccc(S(=O)(=O)CC)cc2)cc1)c1ccc(F)cc1F` [Example 13, N-{4-[1-(2,4-Difluoro-phenyl)-1-ethyl-propoxy]-phenyl}-2-(4-ethanesulfonyl-phenyl)-acetamide], the inhibition at 1 µM came to 56.2% and the inhibition at 10 µM turned out to be 68.8%.

As to `CCn1c(C(C)(C)Oc2ccc(NC(=O)Cc3ccc(S(=O)(=O)CC)cc3)cc2)nc2ccc(F)cc21` [Example 14, N-(4-{[2-(1-ethyl-6-fluoro-1H-benzimidazol-2-yl)propan-2-yl]oxy}phenyl)-2-[4-(ethylsulfonyl)phenyl]acetamide], the IC50 is less than 50 nM, the inhibition at 1 µM was determined as 88.9% and the inhibition at 10 µM was determined as 93.3%.

`CCn1c(C(C)(C)Oc2ccc(NC(=O)Cc3ccc(S(=O)(=O)CC)cc3)cc2)nc2cc(F)ccc21` [Example 15, 2-(4-Ethanesulfonyl-phenyl)-N-{4-[1-(1-ethyl-5-fluoro-1H-benzoimidazol-2-yl)-1-methyl-ethoxy]-phenyl}-acetamide]: the IC50 is less than 50 nM, the inhibition at 1 µM came to 83% and the inhibition at 10 µM is 85.2%.

Take `CCn1c(C(C)(C)Oc2ccc(NC(=O)Cc3ccc(S(=O)(=O)CC)cc3)cc2)nc2cc(Cl)ccc21` [Example 16, N-(4-{[2-(5-Chloro-1-ethyl-1H-benzimidazol-2-yl)propan-2-yl]oxy}phenyl)-2-[4-(ethylsulfonyl)phenyl]acetamide]: the IC50 was less than 50 nM, the inhibition at 1 µM turned out to be 88.6% and the inhibition at 10 µM was 94.3%.

`CCn1c(C(C)(C)Oc2ccc(NC(=O)Cc3ccc(S(=O)(=O)CC)cc3)cc2)nc2ccc(Cl)cc21` [Example 17, N-(4-{[2-(6-Chloro-1-ethyl-1H-benzimidazol-2-yl)propan-2-yl]oxy}phenyl)-2-[4-(ethylsulfonyl)phenyl]acetamide]: the IC50 was less than 50 nM, the inhibition at 1 µM came out at 88.7% and the inhibition at 10 µM is 94.3%.

Consider `CCS(=O)(=O)c1ccc(CC(=O)Nc2ccc(OC(C)(C)c3nc4ccc(Cl)cc4n3C)cc2)cc1` [Example 18, N-{4-[1-(6-Chloro-1-methyl-1H-benzoimidazol-2-yl)-1-methyl-ethoxy]-phenyl}-2-(4-ethanesulfonyl-phenyl)-acetamide], for which the half-maximal inhibitory concentration (IC50) was greater than 100 nM, the inhibition at 1 µM came out at 78.6% and the inhibition at 10 µM is 91%.

Consider `CCn1c(C(C)(C)Oc2ccc(NC(=O)Cc3ccc(S(=O)(=O)CC)cc3)cc2)nc2cccc(Cl)c21` [Example 19, N-(4-{[2-(7-Chloro-1-ethyl-1H-benzimidazol-2-yl)propan-2-yl]oxy}phenyl)-2-[4-(ethylsulfonyl)phenyl]acetamide], for which the IC50 lay in the range of 50 to 100 nM, the inhibition at 1 µM worked out at 85.5% and the inhibition at 10 µM was found to be 88.9%.

For the compound `CCS(=O)(=O)c1ccc(CC(=O)Nc2ccc(OC(C)(C)c3nc4cc(F)ccc4n3C(C)C)cc2)cc1` [Example 20, 2-(4-Ethanesulfonyl-phenyl)-N-{4-[1-(5-fluoro-1-isopropyl-1H-benzoimidazol-2-yl)-1-methyl-ethoxy]-phenyl}-acetamide], the IC50 was greater than 100 nM, the inhibition at 1 µM is 79.8% and the inhibition at 10 µM is 85.2%.

For the compound `CCn1c(C(F)(F)Oc2ccc(NC(=O)Cc3ccc(S(=O)(=O)CC)cc3)cc2)nc2cc(Cl)ccc21` [Example 22, N-{4-[(5-Chloro-1-ethyl-1H-benzoimidazol-2-yl)-difluoro-methoxy]-phenyl}-2-(4-ethanesulfonyl-phenyl)-acetamide], the inhibition at 1 µM was 74.4% and the inhibition at 10 µM is 82.8%.
